Read-outs that look alike come from different tables or passages of the source.
Columns and labels:
MCF-7 cells = assay: cells; assay type: cell-based; settings: for Killing of MCF-7 cells at the highest investigated concentration (in words): 10 μM, compounds with weak hormonal activity; for cytotoxicity at 10 µM / inhibition at 1 µM / Emax: Homo sapiens, MCF7, 96 h; for cytotoxicity at 10 µM / Maximal Cell Kill (% fraction of dead cells): 10 μmol/l; for cytotoxicity at 10 µM: read-out: Maximal Cell Kill (% fraction of dead cells); for inhibition at 1 µM: read-out: Antagonism at 1 μM (% of full antagonism); for Emax: read-out: Maximal Agonism (% of E2)
Experimental: Evaluation of Estrogenic and Antiestrogenic Properties of Compounds in MCF-7 Cell Growth Experiments in Vitro
For experiments involving hormone or anti-hormone treatment, the cells in exponential growth phase were precultivated in the absence of estradiol for one day. […] After the incubation period the medium was removed. The exposure to study drugs was started immediately by adding fresh medium with 5% stripped serum. Half of the cells were grown with estradiol, half without estradiol. Study compounds (dissolved in ethanol in 0.01 M concentration and diluted with the growth medium as appropriate) were added. The final concentrations of the compounds were 1, 10, and 100 nM, and 1 and 10 μM. The cells were incubated for four days.
This method allows evaluation of estrogenicity based on the ability of the compounds to stimulate the growth of the estrogen-dependent cells in the absence of estradiol.
Estrogenicity was estimated by comparing the maximal growth stimulus (at any concentration) of study compound as percent from growth stimulus by estradiol (100% stimulus). […] At high concentrations molecules may also show toxicity. Toxicity was estimated as the fraction of dead cells (i.e. 100% means that all cells have died during the exposure).

[1] = tested on: ovariectomized (OVX) rats; assay: Serum cholesterol level in ovariectomized (OVX) rats after 4 weeks dosing; assay type: in vivo, rat; settings: OVX rats, Table 4
Description: Estimation of Effects to Cholesterol and Bone
Compounds were given p.o. to female rats for 4 or 5 weeks daily. At the end a blood sample was taken. Serum was separated by centrifugation and frozen until analyzed for total amount of cholesterol. Bone samples were taken from vertebra and tibia. Physical strength of the bones was studied as described by Peng et al, 1994.

[2] = Overall hormonal profile summarised from Tables 2, 3 and 4
[3] = tested on: DMBA-induced rat mammary gland cancer; assay: Antitumor activity in DMBA-induced rat mammary gland cancer model; assay type: in vivo; settings: 3 mg/kg p.o. daily for 5 weeks
Experimental: Estimation of Antitumor Activity in Vivo
Antitumor activity was estimated by using DMBA (dimethylbenz[a] anthracene) model. One single peroral dose of DMBA (12 mg) initiates mammary gland carcinogenesis. New compounds were administered for 5 weeks when palpable tumors appeared. Size of the tumors and number of new tumors were carefully estimated once a week until termination. The model has been described in detail by Kangas et al, 1986. The growth of the tumors was measured once a week. All tumors were classified according to their growth properties to progressing, stable and regressing ones. Disappeared tumors were separately calculated. The tumors were considered to be progressing, if the tumor volume grew more than 8-fold during the 5 weeks dosing period, and regressing if the tumor volume decreased to one fourth or less from the volume in the beginning. If tumor volume changed less or remained unchanged, the tumors were considered to be stable.

[4] = Without estradiol (E2), maximal growth stimulus at any concentration, 4 days

For `CN(C)CCOc1ccc(/C(=C(/CCCl)c2ccccc2)c2ccc(Cl)cc2)cc1` [No. 3, (E)-(2-{4-[4-Chloro-1-(4-chlorophenyl)-2-phenylbut-1-enyl]phenoxy}ethyl)-dimethylamine], which “Killing of MCF-7 cells at the highest investigated concentration (in words)” value (“Killing of MCF-7 cells” below) (MCF-7 cells) is on record?
The value was “kill MCF-7 cells (human breast cancer cells) effectively”.

What about the “Effect on cholesterol (in words)” value [1] of the same compound?
Its value is “decrease cholesterol”.

And the “Estrogenic and antiestrogenic action (in words)” value [2]?
Its value is “weak estrogenic and no antiestrogenic action”.

With `OCC(O)COc1ccc(/C(=C(/CCCl)c2ccccc2)c2ccc(Cl)cc2)cc1` (centres unmarked) [No. 10, (E)-3-{4-[4-Chloro-1-(4-chlorophenyl)-2-phenyl-but-1-enyl]phenoxy}propane-1,2-diol] as the compound, how does the cytotoxicity at 10 µM (MCF-7 cells; With estradiol (E2)) read?
Its cytotoxicity at 10 µM is 35%.

And the cytotoxicity at 10 µM (MCF-7 cells; Without estradiol (E2))?
The cytotoxicity at 10 µM was 7%.

What about the inhibition at 1 µM (MCF-7 cells; With estradiol (E2), 1 μM) of the same compound?
Its inhibition at 1 µM is 0%.

What about the Emax (MCF-7 cells; [4]) of the same compound?
Its Emax is 34%.

What about the “Estrogenic and antiestrogenic action (in words)” value [2] of the same compound?
Its value is “weak estrogenic and no antiestrogenic action”.

For `OCCOc1cccc(/C(=C(/CCCl)c2ccccc2)c2ccccc2)c1` [No. 18, (Z)-2-[3-(4-Chloro-1,2-diphenyl-but-1-enyl)phenoxy]ethanol], which Emax (MCF-7 cells; [4]) is on record?
The Emax was 30%.

And the “Estrogenic and antiestrogenic action (in words)” value [2]?
The value was “weak estrogenic and no antiestrogenic action”.

For `CN(C)CCOc1ccc(/C(=C(/CCCl)c2ccc(F)cc2)c2ccccc2)cc1` [No. 25, (Z)-(2-{4-[4-Chloro-2-(4-fluorophenyl)-1-phenylbut-1-enyl]phenoxy}ethyl)-dimethylamine], which “Estrogenic and antiestrogenic action (in words)” value [2] is on record?
The value was “weak estrogenic and no antiestrogenic action”.

Which cytotoxicity at 10 µM (MCF-7 cells; With estradiol (E2)) does the source give for `CN(C)CCSc1ccc(/C(=C(/CCCl)c2ccccc2)c2ccccc2)cc1` [No. 32, (Z)-1-[4-(2-Dimethylaminoethylsulfanyl)phenyl]-1,2-diphenyl-4-chloro-but-1-ene] here?
Its cytotoxicity at 10 µM is 90%.

What about the cytotoxicity at 10 µM (MCF-7 cells; Without estradiol (E2)) of the same compound?
Its cytotoxicity at 10 µM is 86%.

What about the inhibition at 1 µM (MCF-7 cells; With estradiol (E2), 1 μM) of the same compound?
Its inhibition at 1 µM is 0%.

And the Emax (MCF-7 cells; [4])?
Its Emax is 11%.

And the “Estrogenic and antiestrogenic action (in words)” value [2]?
Its value is “weak estrogenic and no antiestrogenic action”.

With `CN(C)CCOc1cccc(/C(=C(/CCCl)c2ccccc2)c2ccccc2)c1` [No. 33, (Z)-{2-[3-(4-Chloro-1,2-diphenylbut-1-enyl)phenoxy]ethyl}dimethylamine] as the compound, how does the Emax (MCF-7 cells; [4]) read?
Its Emax is 20%.

And the “Cytotoxic action (in words)” value (MCF-7 cells; Table 2)?
The value was “weak”.

And the “Effect on cholesterol (in words)” value [1]?
The value was “decrease cholesterol”.

With `OCCSc1ccc(/C(=C(/CCCl)c2ccccc2)c2ccccc2)cc1` [No. 36, (Z)-2-[4-(4-Chloro-1,2-diphenyl-but-1-enyl)-phenylsulfanyl]ethanol] as the compound, how does the cytotoxicity at 10 µM (MCF-7 cells; With estradiol (E2)) read?
Its cytotoxicity at 10 µM is 37%.

What about the cytotoxicity at 10 µM (MCF-7 cells; Without estradiol (E2)) of the same compound?
The cytotoxicity at 10 µM was 17%.

And the inhibition at 1 µM (MCF-7 cells; With estradiol (E2), 1 μM)?
The inhibition at 1 µM was 13%.

And the Emax (MCF-7 cells; [4])?
The Emax was 8%.

And the “Estrogenic and antiestrogenic action (in words)” value [2]?
Its value is “weak estrogenic and no antiestrogenic action”.

With `ClCC/C(=C(\c1ccccc1)c1ccc(OCCN2CCCCC2)cc1)c1ccccc1Cl` [No. 38, (Z)-1-(2-{4-[4-Chloro-2-(2-chlorophenyl)-1-phenylbut-1-enyl]phenoxy}-ethyl)piperidine] as the compound, how does the cytotoxicity at 10 µM (MCF-7 cells; With estradiol (E2)) read?
Its cytotoxicity at 10 µM is 100%.

What about the cytotoxicity at 10 µM (MCF-7 cells; Without estradiol (E2)) of the same compound?
The cytotoxicity at 10 µM was 99%.

And the inhibition at 1 µM (MCF-7 cells; With estradiol (E2), 1 μM)?
Its inhibition at 1 µM is 68%.

And the Emax (MCF-7 cells; [4])?
The Emax was 0%.

For `Oc1cccc(/C(=C(\CCCl)c2ccccc2)c2ccc(OCCn3ccnc3)cc2)c1` [No. 39, (E)-3-{4-Chloro-1-[4-(2-imidazol-1-yl-ethoxy)phenyl]-2-phenyl-but-1-enyl}-phenol], which “Killing of MCF-7 cells” value (MCF-7 cells) is on record?
The value was “kill MCF-7 cells (human breast cancer cells) effectively”.

And the cytotoxicity at 10 µM (MCF-7 cells; With estradiol (E2))?
The cytotoxicity at 10 µM was 78%.

What about the cytotoxicity at 10 µM (MCF-7 cells; Without estradiol (E2)) of the same compound?
Its cytotoxicity at 10 µM is 68%.

And the inhibition at 1 µM (MCF-7 cells; With estradiol (E2), 1 μM)?
Its inhibition at 1 µM is 17%.

And the Emax (MCF-7 cells; [4])?
Its Emax is 0%.

With `Oc1cccc(/C(=C(/CCCl)c2ccccc2)c2ccc(OCCn3ccnc3)cc2)c1` [No. 40, (Z)-3-{4-Chloro-1-[4-(2-imidazol-1-yl-ethoxy)phenyl]-2-phenyl-but-1-enyl}-phenol] as the compound, how does the “Killing of MCF-7 cells” value (MCF-7 cells) read?
The value was “kill MCF-7 cells (human breast cancer cells) effectively”.

What about the cytotoxicity at 10 µM (MCF-7 cells; With estradiol (E2)) of the same compound?
The cytotoxicity at 10 µM was 46%.

And the cytotoxicity at 10 µM (MCF-7 cells; Without estradiol (E2))?
The cytotoxicity at 10 µM was 63%.

And the inhibition at 1 µM (MCF-7 cells; With estradiol (E2), 1 μM)?
Its inhibition at 1 µM is 3%.

And the Emax (MCF-7 cells; [4])?
The Emax was 0%.

Which results are given for `OCCNc1ccc(/C(=C(/CCCl)c2ccccc2)c2ccccc2)cc1` [No. 41, (Z)-2-[4-(4-Chloro-1,2-diphenyl-but-1-enyl)phenylamino]ethanol]?
cytotoxicity at 10 µM (MCF-7 cells; With estradiol (E2)): 47%; cytotoxicity at 10 µM (MCF-7 cells; Without estradiol (E2)): 0%; inhibition at 1 µM (MCF-7 cells; With estradiol (E2), 1 μM): 10%; Emax (MCF-7 cells; [4]): 54%

Which cytotoxicity at 10 µM (MCF-7 cells; With estradiol (E2)) does the source give for `C#CCN(C)CCOc1ccc(/C(=C(/CCCl)c2ccccc2)c2ccccc2)cc1` [No. 44, (Z)-{2-[4-(4-Chloro-1,2-diphenylbut-1-enyl)phenoxy]ethyl}-methylprop-2-ynylamine] here?
Its cytotoxicity at 10 µM is 95%.

What about the cytotoxicity at 10 µM (MCF-7 cells; Without estradiol (E2)) of the same compound?
The cytotoxicity at 10 µM was 78%.

And the inhibition at 1 µM (MCF-7 cells; With estradiol (E2), 1 μM)?
Its inhibition at 1 µM is 8%.

What about the Emax (MCF-7 cells; [4]) of the same compound?
Its Emax is 24%.

What about the “Estrogenic and antiestrogenic action (in words)” value [2] of the same compound?
The value was “weak estrogenic and no antiestrogenic action”.

For `CCC(O)(CC)COc1ccc(/C(=C(/CCCl)c2ccccc2)c2ccccc2)cc1` [No. 45, (Z)-3-[4-(4-Chloro-1,2-diphenylbut-1-enyl)phenoxymethyl]pentan-3-ol], which cytotoxicity at 10 µM (MCF-7 cells; With estradiol (E2)) is on record?
Its cytotoxicity at 10 µM is 19%.

And the cytotoxicity at 10 µM (MCF-7 cells; Without estradiol (E2))?
Its cytotoxicity at 10 µM is 6%.

What about the inhibition at 1 µM (MCF-7 cells; With estradiol (E2), 1 μM) of the same compound?
Its inhibition at 1 µM is 3%.

And the Emax (MCF-7 cells; [4])?
The Emax was 15%.

For `CCC(CO)Oc1ccc(/C(=C(/CCCl)c2ccccc2)c2ccccc2)cc1` (centres unmarked) [No. 46, (Z)-2-[4-(4-Chloro-1,2-diphenylbut-1-enyl)phenoxy]butan-1-ol], which cytotoxicity at 10 µM (MCF-7 cells; With estradiol (E2)) is on record?
The cytotoxicity at 10 µM was 51%.

What about the cytotoxicity at 10 µM (MCF-7 cells; Without estradiol (E2)) of the same compound?
The cytotoxicity at 10 µM was 15%.

What about the inhibition at 1 µM (MCF-7 cells; With estradiol (E2), 1 μM) of the same compound?
Its inhibition at 1 µM is 23%.

What about the Emax (MCF-7 cells; [4]) of the same compound?
Its Emax is 18%.

With `CC/C(=C(\c1ccccc1)c1ccc(OCCN(C)C)cc1)c1ccccc1` [Tamoxifen, reference compound] as the compound, how does the “Disappeared tumors (per cent of total tumor number)” value [3] read?
Its value is 0%.

And the “Growing tumors (per cent of total tumor number)” value [3]?
Its value is 36%.

What about the “Regressing tumors (per cent of total tumor number)” value [3] of the same compound?
The value was 8%.

What about the “Stable tumors (per cent of total tumor number)” value [3] of the same compound?
The value was 56%.

What does the source list for `CN(C)CCOc1ccc(/C(=C(/CCCl)c2ccccc2)c2ccccc2)cc1` [Toremifene, reference compound]?
Disappeared tumors (per cent of total tumor number) [3]: 10%; Growing tumors (per cent of total tumor number) [3]: 31%; Regressing tumors (per cent of total tumor number) [3]: 11%; Stable tumors (per cent of total tumor number) [3]: 51%

Which “Antagonism at 1 μM (% of full antagonism)” value (MCF-7 cells; With estradiol (E2), 1 μM) does the source give for “E-3-(4-Chloro-1-{4-[2-(2-hydroxyethoxy)ethoxy]phenyl}-2-phenylbut-1-enyl)phenol [Example 11]” here?
Its value is 0 % of full antagonism.

What about the “Maximal Cell Kill (% fraction of dead cells)” value (MCF-7 cells; With estradiol (E2)) of the same compound?
Its value is 55 % fraction of dead cells.

And the “Maximal Cell Kill (% fraction of dead cells)” value (MCF-7 cells; Without estradiol (E2))?
Its value is 26 % fraction of dead cells.

What about the “Maximal Agonism (% of E2)” value (MCF-7 cells; [4]) of the same compound?
Its value is 14 % of E2.

What about the “Estrogenic and antiestrogenic action (in words)” value [2] of the same compound?
The value was “weak estrogenic and no antiestrogenic action”.

Reference: patent US6875775B2, “Triphenylalkene derivatives and their use as selective estrogen receptor modulators” (Hormos Medical Oy LTD, priority 1999, dated 2005)
